Consider 14 compounds from US20230073777A1, “CYCLIC-AMP RESPONSE ELEMENT BINDING PROTEIN (CBP) AND/OR ADENOVIRAL E1A BINDING PROTEIN OF 300 KDA (P300) DEGRADATION COMPOUNDS AND METHODS OF USE” (CULLGEN (SHANGHAI), INC., priority 2019, published 2023).

Like-named read-outs stand apart in the source and are kept apart here. Bounds are passed on as bounds.

For orientation: IC50 means the concentration that inhibits the measured activity by half.

In one assay the test system is LNCaP cells. Kind of assay: LNCaP cell viability assay (CellTiter-Glo). It is filed as cell-based. The following applies: Homo sapiens, 72 h, LNCaP prostate cancer cell viability inhibition, 3 days. Summed up:
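Three-day treatment of LNCaP cells (5000 per well) across a 12-point, 3-fold dilution series starting at 10 μM. ATP luminescence (CellTiter-Glo) relative to untreated controls gave dose-response curves fitted nonlinearly for IC50.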
(In general: ATP-based viability assays read luminescence as a measure of living cells.)

Another assay has as its target P300 (Homo sapiens, UniProt Q09472). Kind of assay: Immunoblotting of P300 protein levels in LNCaP or 22RV1 cells. The following applies: read-out: Degradation (10 nM). The format is cell-based. Set-up: LNCaP or 22RV1 cells that express CBP/P300 proteins were treated with GNE-781 or the bivalent compounds; endogenous in cells; host or cells: LNCaP (clone FGC) or 22RV1 cells. Summed up:
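P300/CBP levels quantified by chemiluminescent immunoblot band densitometry, normalized against tubulin or vinculin loading controls. Lysates came from LNCaP or 22RV1 cells exposed to compounds or DMSO vehicle for indicated times.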
Background: In western blotting, separated proteins are transferred to a membrane and probed.

Where [1] appears, read: percentage of inhibition of p300 at 10 nM (Table 3).
The mark [2] stands for this setting: percentage of inhibition of p300 at 10 nM (Table 2).

P300, sequence (Q09472 whole entry): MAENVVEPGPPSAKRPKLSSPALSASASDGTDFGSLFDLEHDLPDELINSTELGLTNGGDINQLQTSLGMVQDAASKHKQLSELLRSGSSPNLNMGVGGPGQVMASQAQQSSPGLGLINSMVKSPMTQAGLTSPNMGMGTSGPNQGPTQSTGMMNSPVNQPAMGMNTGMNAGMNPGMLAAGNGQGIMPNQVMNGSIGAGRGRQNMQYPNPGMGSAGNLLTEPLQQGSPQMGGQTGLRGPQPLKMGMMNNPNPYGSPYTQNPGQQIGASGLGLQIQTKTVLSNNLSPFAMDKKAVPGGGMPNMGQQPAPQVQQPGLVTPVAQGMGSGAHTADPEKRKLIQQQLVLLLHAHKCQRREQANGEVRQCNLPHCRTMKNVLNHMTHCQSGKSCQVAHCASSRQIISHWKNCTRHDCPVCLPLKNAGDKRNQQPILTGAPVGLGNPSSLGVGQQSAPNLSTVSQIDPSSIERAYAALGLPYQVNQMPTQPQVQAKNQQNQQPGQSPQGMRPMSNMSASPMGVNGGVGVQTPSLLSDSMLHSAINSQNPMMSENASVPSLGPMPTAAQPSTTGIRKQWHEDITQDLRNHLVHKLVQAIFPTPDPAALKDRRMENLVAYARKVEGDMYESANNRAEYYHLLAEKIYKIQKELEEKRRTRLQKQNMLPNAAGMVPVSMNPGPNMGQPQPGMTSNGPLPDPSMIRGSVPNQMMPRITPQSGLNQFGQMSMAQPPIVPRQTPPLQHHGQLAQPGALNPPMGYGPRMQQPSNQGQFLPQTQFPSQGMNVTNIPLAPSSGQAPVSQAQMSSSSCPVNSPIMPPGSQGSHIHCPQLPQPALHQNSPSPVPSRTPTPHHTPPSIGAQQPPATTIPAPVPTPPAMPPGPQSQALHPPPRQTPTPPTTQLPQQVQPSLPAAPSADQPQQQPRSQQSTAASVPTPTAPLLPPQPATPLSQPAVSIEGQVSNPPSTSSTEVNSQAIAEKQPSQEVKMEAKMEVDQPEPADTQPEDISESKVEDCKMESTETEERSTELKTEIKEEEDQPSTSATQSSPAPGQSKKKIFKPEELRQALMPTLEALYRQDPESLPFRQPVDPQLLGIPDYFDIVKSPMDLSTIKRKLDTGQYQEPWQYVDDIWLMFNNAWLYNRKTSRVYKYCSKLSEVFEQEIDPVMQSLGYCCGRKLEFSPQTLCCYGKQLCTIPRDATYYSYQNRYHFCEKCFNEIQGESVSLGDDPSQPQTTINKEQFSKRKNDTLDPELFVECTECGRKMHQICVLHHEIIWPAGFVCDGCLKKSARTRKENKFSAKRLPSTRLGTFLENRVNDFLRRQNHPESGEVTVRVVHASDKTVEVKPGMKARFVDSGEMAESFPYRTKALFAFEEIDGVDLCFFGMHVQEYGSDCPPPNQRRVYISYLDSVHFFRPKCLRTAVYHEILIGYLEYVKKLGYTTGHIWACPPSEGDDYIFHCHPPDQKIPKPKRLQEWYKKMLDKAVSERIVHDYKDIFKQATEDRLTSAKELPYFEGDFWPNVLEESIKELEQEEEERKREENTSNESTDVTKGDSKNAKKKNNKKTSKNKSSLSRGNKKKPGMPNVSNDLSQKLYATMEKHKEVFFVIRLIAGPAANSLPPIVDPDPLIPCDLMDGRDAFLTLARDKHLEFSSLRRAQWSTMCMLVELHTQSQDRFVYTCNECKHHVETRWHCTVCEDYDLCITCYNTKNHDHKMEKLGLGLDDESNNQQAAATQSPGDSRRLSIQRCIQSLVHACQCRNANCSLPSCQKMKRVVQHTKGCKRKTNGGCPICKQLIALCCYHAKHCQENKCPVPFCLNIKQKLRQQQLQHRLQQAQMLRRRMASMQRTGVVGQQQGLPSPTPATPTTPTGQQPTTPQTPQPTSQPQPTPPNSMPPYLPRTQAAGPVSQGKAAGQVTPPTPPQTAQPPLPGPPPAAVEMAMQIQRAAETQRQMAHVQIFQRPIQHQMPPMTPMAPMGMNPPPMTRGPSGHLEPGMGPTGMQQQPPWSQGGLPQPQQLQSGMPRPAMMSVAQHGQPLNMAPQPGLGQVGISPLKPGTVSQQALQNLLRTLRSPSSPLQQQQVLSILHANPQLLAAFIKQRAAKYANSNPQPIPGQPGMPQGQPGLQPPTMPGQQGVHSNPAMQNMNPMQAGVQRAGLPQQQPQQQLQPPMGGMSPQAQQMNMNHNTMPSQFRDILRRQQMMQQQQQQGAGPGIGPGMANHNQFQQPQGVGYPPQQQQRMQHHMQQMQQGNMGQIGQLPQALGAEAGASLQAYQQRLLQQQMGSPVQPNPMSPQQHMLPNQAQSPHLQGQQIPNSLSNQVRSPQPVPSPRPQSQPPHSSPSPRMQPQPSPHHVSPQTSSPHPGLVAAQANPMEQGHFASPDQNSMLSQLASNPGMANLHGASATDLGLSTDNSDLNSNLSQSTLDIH

As for `CNC(=O)N1CCc2c(c(N3CCCc4cc(-c5cnn(C)c5)c(C(F)F)cc43)nn2C2CCN(C(=O)CCCCCCNc3cccc4c3n(C)c(=O)n4C3CCC(=O)NC3=O)CC2)C1` (stereo not shown) [P-114, 3-(7-(Difluoromethyl)-6-(1-methyl-1H-pyrazol-4-yl)-3,4-dihydroquinolin-1(2H)-yl)-1-(1-(7-((1-(2,6-dioxopiperidin-3-yl)-3-methyl-2-oxo-2,3-dihydro-1H-benzo[d]imidazol-4-yl)amino)heptanoyl)piperidin-4-yl)-N-methyl-1,4,6,7-tetrahydro-5H-pyrazolo[4,3-c]pyridine-5-carboxamide], the IC50 in the assay on LNCaP cells (CellTiter-Glo (Table 3)) was found to be 877 nM. Moreover, on P300 (setting [1]), the inhibition at 0.01 µM was 20 to 50%.

Take `CNC(=O)N1CCc2c(c(N3CCCc4cc(-c5cnn(C)c5)c(C(F)F)cc43)nn2C2CCN(C(=O)CCOCCOCCOCCOCCOCCC(=O)N[C@H](C(=O)N3C[C@H](O)C[C@H]3C(=O)NCc3ccc(-c4scnc4C)cc3)C(C)(C)C)CC2)C1` [P-072, 3-(7-(Difluoromethyl)-6-(1-methyl-1H-pyrazol-4-yl)-3,4-dihydroquinolin-1(2H)-yl)-1-(1-((S)-21-((2S,4R)-4-hydroxy-2-((4-(4-methylthiazol-5-yl)benzyl)carbamoyl)pyrrolidine-1-carbonyl)-22,22-dimethyl-19-oxo-4,7,10,13,16-pentaoxa-20-azatricosanoyl)piperidin-4-yl)-N-methyl-1,4,6,7-tetrahydro-5H-pyrazolo[4,3-c]pyridine-5-carboxamide]: in the assay with LNCaP cells (CellTiter-Glo (Table 3)), the IC50 was 60.7 nM. In addition, the inhibition at 0.01 µM at P300 (setting [1]) is less than 20%.

On to `CC(=O)N1CCc2c(c(N3CCCc4cc(-c5cnn(C)c5)c(C(F)F)cc43)nn2C2CCN(C(=O)CN3CCOC(CNc4cccc5c4C(=O)N(C4CCC(=O)NC4=O)C5=O)C3)CC2)C1` (stereo not shown) [P-141, 4-(((4-(2-(4-(5-Acetyl-3-(7-(difluoromethyl)-6-(1-methyl-1H-pyrazol-4-yl)-3,4-dihydroquinolin-1(2H)-yl)-4,5,6,7-tetrahydro-1H-pyrazolo[4,3-c]pyridin-1-yl)piperidin-1-yl)-2-oxoethyl)morpholin-2-yl)methyl)amino)-2-(2,6-dioxopiperidin-3-yl)isoindoline-1,3-dione], for which the IC50 in the assay on LNCaP cells (CellTiter-Glo (Table 3)) was 156 nM. Moreover, at P300 (setting [1]), the inhibition at 0.01 µM lay within 50 to 80%.

In turn, `CC(=O)N1CCc2c(c(N3CCCc4cc(-c5cnn(C)c5)c(C(F)F)cc43)nn2C2CCN(C(=O)CCCCC#Cc3cccc4c3CN(C3CCC(=O)NC3=O)C4=O)CC2)C1` (stereo not shown) [P-122, 3-(4-(7-(4-(5-Acetyl-3-(7-(difluoromethyl)-6-(1-methyl-1H-pyrazol-4-yl)-3,4-dihydroquinolin-1(2H)-yl)-4,5,6,7-tetrahydro-1H-pyrazolo[4,3-c]pyridin-1-yl)piperidin-1-yl)-7-oxohept-1-yn-1-yl)-1-oxoisoindolin-2-yl)piperidine-2,6-dione] displayed an IC50 with LNCaP cells (CellTiter-Glo (Table 3)) of 84.4 nM. The inhibition at 0.01 µM at P300 (setting [1]) was greater than 80%.

The compound `CC(=O)N1CCc2c(c(N3CCCc4cc(-c5cnn(C)c5)c(C(F)F)cc43)nn2C2CCN(C(=O)CCCCCCc3cccc4c3C(=O)N(C3CCC(=O)NC3=O)C4=O)CC2)C1` (stereo not shown) [P-118, 4-(7-(4-(5-Acetyl-3-(7-(difluoromethyl)-6-(1-methyl-1H-pyrazol-4-yl)-3,4-dihydroquinolin-1(2H)-yl)-4,5,6,7-tetrahydro-1H-pyrazolo[4,3-c]pyridin-1-yl)piperidin-1-yl)-7-oxoheptyl)-2-(2,6-dioxopiperidin-3-yl)isoindoline-1,3-dione] returned an IC50 with LNCaP cells (CellTiter-Glo (Table 3)) of 17.8 nM. Moreover, the inhibition at 0.01 µM on P300 (setting [1]) was 20 to 50%.

Turning to `CNC(=O)N1CCc2c(c(N3CCCc4cc(-c5cnn(C)c5)c(C(F)F)cc43)nn2C2CCN(C(=O)CCCCCCNc3cccc4c3C(=O)N(C3CCC(=O)NC3=O)C4=O)CC2)C1` (stereo not shown) [P-035, 3-(7-(difluoromethyl)-6-(1-methyl-1H-pyrazol-4-yl)-3,4-dihydroquinolin-1(2H)-yl)-1-(1-(7-((2-(2,6-dioxopiperidin-3-yl)-1,3-dioxoisoindolin-4-yl)amino)heptanoyl)piperidin-4-yl)-N-methyl-1,4,6,7-tetrahydro-5H-pyrazolo[4,3-c]pyridine-5-carboxamide], the concentration for half-maximal inhibition (IC50) in the assay with LNCaP cells (CellTiter-Glo (Table 2)) came to 0.7 nM. In addition, the inhibition at 0.01 µM at P300 (setting [2]) is greater than 80%.

The compound `CC(=O)N1CCc2c(c(N3CCCc4cc(-c5cnn(C)c5)c(C(F)F)cc43)nn2C2CCN(C(=O)CN3CCC(CNc4cccc5c4C(=O)N(C4CCC(=O)NC4=O)C5=O)CC3)CC2)C1` (stereo not shown) [P-123, 4-(((1-(2-(4-(5-Acetyl-3-(7-(difluoromethyl)-6-(1-methyl-1H-pyrazol-4-yl)-3,4-dihydroquinolin-1(2H)-yl)-4,5,6,7-tetrahydro-1H-pyrazolo[4,3-c]pyridin-1-yl)piperidin-1-yl)-2-oxoethyl)piperidin-4-yl)methyl)amino)-2-(2,6-dioxopiperidin-3-yl)isoindoline-1,3-dione] returned a concentration for half-maximal inhibition (IC50) in the assay on LNCaP cells (CellTiter-Glo (Table 3)) of 20.3 nM. In addition, the inhibition at 0.01 µM at P300 (setting [1]) is greater than 80%.

Take `CC(=O)N1CCc2c(c(N3CCCc4cc(-c5cnn(C)c5)c(C(F)F)cc43)nn2C2CCN(C(=O)CCCCCCCNc3ccc4c(c3)n(C)c(=O)n4C3CCC(=O)NC3=O)CC2)C1` (stereo not shown) [P-161]: the midpoint of inhibition in the assay with LNCaP cells (CellTiter-Glo (Table 3)), the IC50, lay at 0.1 nM. For the same compound, on P300 (setting [1]), the inhibition at 0.01 µM is greater than 80%.

`CC(=O)N1CCc2c(c(N3CCCc4cc(-c5cnn(C)c5)c(C(F)F)cc43)nn2C2CCN(C(=O)CN3CC(CNc4cccc5c4C(=O)N(C4CCC(=O)NC4=O)C5=O)C3)CC2)C1` (stereo not shown) [P-158, 4-(((1-(2-(4-(5-Acetyl-3-(7-(difluoromethyl)-6-(1-methyl-1H-pyrazol-4-yl)-3,4-dihydroquinolin-1(2H)-yl)-4,5,6,7-tetrahydro-1H-pyrazolo[4,3-c]pyridin-1-yl)piperidin-1-yl)-2-oxoethyl)azetidin-3-yl)methyl)amino)-2-(2,6-dioxopiperidin-3-yl)isoindoline-1,3-dione]: in the assay on LNCaP cells (CellTiter-Glo (Table 3)), the IC50 is 90.1 nM. Further, the inhibition at 0.01 µM at P300 (setting [1]) was less than 20%.

Consider `CC(=O)N1CCc2c(c(N3CCCc4cc(-c5cnn(C)c5)c(C(F)F)cc43)nn2C2CCN(C(=O)CN3CCC(CCCc4cccc5c4C(=O)N(C4CCC(=O)NC4=O)C5=O)CC3)CC2)C1` (stereo not shown) [P-147, 4-(3-(1-(2-(4-(5-acetyl-3-(7-(difluoromethyl)-6-(1-methyl-1H-pyrazol-4-yl)-3,4-dihydroquinolin-1(2H)-yl)-4,5,6,7-tetrahydro-1H-pyrazolo[4,3-c]pyridin-1-yl)piperidin-1-yl)-2-oxoethyl)piperidin-4-yl)propyl)-2-(2,6-dioxopiperidin-3-yl)isoindoline-1,3-dione], for which the IC50 with LNCaP cells (CellTiter-Glo (Table 3)) is 1.4 nM. The inhibition at 0.01 µM at P300 (setting [1]) was greater than 80%.

`CNC(=O)N1CCc2c(c(N3CCCc4cc(-c5cnn(CC(=O)NCCOCCOCCOCCOCCOCCNc6ccc7c(c6)C(=O)N(C6CCC(=O)NC6=O)C7=O)c5)c(C(F)F)cc43)nn2C2CCOCC2)C1` (stereo not shown) [P-032, 3-(7-(Difluoromethyl)-6-(1-(20-((2-(2,6-dioxopiperidin-3-yl)-1,3-dioxoisoindolin-5-yl)amino)-2-oxo-6,9,12,15,18-pentaoxa-3-azaicosyl)-1H-pyrazol-4-yl)-3,4-dihydroquinolin-1(2H)-yl)-N-methyl-1-(tetrahydro-2H-pyran-4-yl)-1,4,6,7-tetrahydro-5H-pyrazolo[4,3-c]pyridine-5-carboxamide] came in with an IC50 with LNCaP cells (CellTiter-Glo (Table 2)) of 601 nM. Moreover, the inhibition at 0.01 µM on P300 (setting [2]) is less than 20%.

`CC(=O)N1CCc2c(c(N3CCCc4cc(-c5cnn(C)c5)c(C(F)F)cc43)nn2C2CCN(CCN3CCC(COc4cccc5c4C(=O)N(C4CCC(=O)NC4=O)C5=O)CC3)CC2)C1` (stereo not shown) [P-167, 4-((1-(2-(4-(5-Acetyl-3-(7-(difluoromethyl)-6-(1-methyl-1H-pyrazol-4-yl)-3,4-dihydroquinolin-1(2H)-yl)-4,5,6,7-tetrahydro-1H-pyrazolo[4,3-c]pyridin-1-yl)piperidin-1-yl)ethyl)piperidin-4-yl)methoxy)-2-(2,6-dioxopiperidin-3-yl)isoindoline-1,3-dione]: the IC50 in the assay with LNCaP cells (CellTiter-Glo (Table 3)) stood at 92 nM. Besides, at P300, the inhibition at 0.01 µM is less than 20%.

As for `CC(=O)N1CCc2c(c(N3CCCc4cc(-c5cnn(C)c5)c(C(F)F)cc43)nn2C2CCN(C(=O)CCCCCNc3cccc4nnn(C5CCC(=O)NC5=O)c(=O)c34)CC2)C1` (stereo not shown) [P-151, 3-(5-((6-(4-(5-acetyl-3-(7-(difluoromethyl)-6-(1-methyl-1H-pyrazol-4-yl)-3,4-dihydroquinolin-1(2H)-yl)-4,5,6,7-tetrahydro-1H-pyrazolo[4,3-c]pyridin-1-yl)piperidin-1-yl)-6-oxohexyl)amino)-4-oxobenzo[d][1,2,3]triazin-3(4H)-yl)piperidine-2,6-dione], in the assay with LNCaP cells (CellTiter-Glo (Table 3)), the IC50 was determined as 7.5 nM. At P300 (setting [1]), the inhibition at 0.01 µM is greater than 80%.

On to `CC(=O)N1CCc2c(c(N3CCCc4cc(-c5cnn(C)c5)c(C(F)F)cc43)nn2C2CCN(C(=O)CN3CCC(CCc4cccc5c4C(=O)N(C4CCC(=O)NC4=O)C5=O)CC3)CC2)C1` (stereo not shown) [P-131, 4-(2-(1-(2-(4-(5-acetyl-3-(7-(difluoromethyl)-6-(1-methyl-1H-pyrazol-4-yl)-3,4-dihydroquinolin-1(2H)-yl)-4,5,6,7-tetrahydro-1H-pyrazolo[4,3-c]pyridin-1-yl)piperidin-1-yl)-2-oxoethyl)piperidin-4-yl)ethyl)-2-(2,6-dioxopiperidin-3-yl)isoindoline-1,3-dione], for which the IC50 in the assay on LNCaP cells (CellTiter-Glo (Table 3)) stood at 14 nM. The inhibition at 0.01 µM at P300 (setting [1]) was greater than 80%.
